Patent US7435731B2, “Substituted pyrazolo[3,4-d]pyrimadines and methods of using the same” (Roche Palo Alto LLC, priority 2004, dated 2008)

Assays:
p38 MAP kinase = molecular target: T1, p38 MAP kinase (Homo sapiens, UniProt Q16539); assay: p38 (MAP) kinase in vitro assay, transfer of γ-33P-phosphate from ATP to Myelin Basic Protein; assay type: biochemical; conditions: phosphorylated recombinant p38 MAP kinase, MBP substrate, γ-33P-ATP, 30° C.
T1 construct: made in house; host or cells: E. coli (co-expressed with SEK-1 and MEKK)
Protocol: This example illustrates a p38 (MAP) kinase in vitro assay useful for evaluating the compounds of the invention.
The p38 MAP kinase inhibitory activity of compounds of this invention in vitro was determined by measuring the transfer of the γ-phosphate from γ-^33P-ATP by p-38 kinase to Myelin Basic Protein (MBP), using a minor modification of the method described in Ahn, et al., J. Biol. Chem. 266:4220-4227 (1991).
The phosphorylated form of the recombinant p38 MAP kinase was co-expressed with SEK-1 and MEKK in E. Coli (see, Khokhlatchev, et al., J. Biol. Chem. 272:11057-11062 (1997)) and then purified by affinity chromatography using a Nickel column.
The phosphorylated p38 MAP kinase was diluted in kinase buffer (20 mM 3-(N-morpholino)propanesulfonic acid, pH 7.2, 25 mM β-glycerol phosphate, 5 mM ethylene glycol-bis(beta-aminoethyl ether)-N,N,N′,N′-tetraacetic acid, 1 mM sodium ortho-vanadate, 1 mM dithiothreitol, 40 mM magnesium chloride). Test compound dissolved in DMSO or only DMSO (control) was added and the samples were incubated for 10 min at 30° C. The kinase reaction was initiated by the addition of a substrate cocktail containing MBP and γ-^33P-ATP. […] The phosphorylated MBP was then separated from the residual γ-^33P-ATP using a phosphocellulose membrane (Millipore, Bedford, Mass.) and quantitated using a scintillation counter (Packard, Meriden, Conn.).

T1 sequence (Q16539 whole entry): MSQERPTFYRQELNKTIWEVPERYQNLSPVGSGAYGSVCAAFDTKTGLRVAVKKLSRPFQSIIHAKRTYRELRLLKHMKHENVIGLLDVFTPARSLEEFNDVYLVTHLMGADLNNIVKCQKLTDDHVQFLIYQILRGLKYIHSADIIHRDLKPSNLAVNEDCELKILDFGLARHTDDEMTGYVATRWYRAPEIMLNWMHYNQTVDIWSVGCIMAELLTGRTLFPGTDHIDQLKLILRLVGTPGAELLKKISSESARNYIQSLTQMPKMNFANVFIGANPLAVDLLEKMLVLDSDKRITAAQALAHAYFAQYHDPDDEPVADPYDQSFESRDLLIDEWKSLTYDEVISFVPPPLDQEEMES

Compound | melting point [°C] | IC50 (p38 MAP kinase) [nM]
C[C@H](O)CNc1nc(Oc2ccc(F)cc2F)cc2[nH]nc(-c3ccccc3Cl)c12 [Example 9, (S)-1-[3-(2-Chloro-phenyl)-6-(2,4-difluoro-phenoxy)-1H-pyrazolo[4,3-c]pyridin-4-ylamino]-propan-2-ol] | 171.2 to 172 | 
C[C@H](O)CNc1nc(Oc2ccc(F)cc2F)nc2[nH]nc(-c3ccccc3Cl)c12 [Example 1, (S)-1-[3-(2-chlorophenyl)-6-(2,4-difluorophenoxy)-1H-pyrazolo[3,4-d]pyrimidin-4-ylamino]propan-2-ol] | 254.6 to 258.2 | 
OC[C@@H](O)CNc1nc(Oc2ccc(F)cc2F)nc2[nH]nc(-c3ccccc3Cl)c12 [3-[3-(2-Chloro-phenyl)-6-(2,4-difluoro-phenoxy)-1H-pyrazolo[3,4-d]pyrimidin-4-ylamino]-propane-1,2-diol] |  | 4
OC[C@H](O)COc1nc(Oc2ccc(F)cc2F)nc2[nH]nc(-c3ccccc3Cl)c12 [Example 5, (S)-3-[3-(2-Chloro-phenyl)-6-(2,4-difluoro-phenoxy)-1H-pyrazolo[3,4-d]pyrimidin-4-yloxy]-propane-1,2-diol] | 179.2 to 181.3 | 
C[C@H](O)CNc1cc(Oc2ccc(F)cc2F)nc2[nH]nc(-c3ccccc3Cl)c12 [Example 10, (S)-1-[3-(2-Chloro-phenyl)-6-(2,4-difluoro-phenoxy)-1H-pyrazolo[3,4-b]pyridin-4-ylamino]-propan-2-ol] | 237.9 to 238.5 | 
